{"source": "patent US9315481B2", "about": "“Compounds and methods for treating leukemia” (INDIANA UNIVERSITY RESEARCH AND TECHNOLOGY CORPORATION, priority 2012, dated 2016)", "key": {"TAIL7 cells": {"test_system": "TAIL7 cells", "assay": "standard cell survival assay (ATP assay) of TAIL7 cells", "format": "cell-based", "settings": "Homo sapiens, 96 h", "source_text": "The compounds described herein decrease survival of leukemia cells."}, "[1]": {"assay": "Maximum tolerated dose (MTD)", "settings": "in vivo, po", "source_text": "Maximum tolerated dose (MTD). […] Animals were monitored for up to 14 days after termination of dosing."}, "Ref-1": {"target": "Ref-1 (Homo sapiens, UniProt P27695)", "sequence (P27695 whole entry)": "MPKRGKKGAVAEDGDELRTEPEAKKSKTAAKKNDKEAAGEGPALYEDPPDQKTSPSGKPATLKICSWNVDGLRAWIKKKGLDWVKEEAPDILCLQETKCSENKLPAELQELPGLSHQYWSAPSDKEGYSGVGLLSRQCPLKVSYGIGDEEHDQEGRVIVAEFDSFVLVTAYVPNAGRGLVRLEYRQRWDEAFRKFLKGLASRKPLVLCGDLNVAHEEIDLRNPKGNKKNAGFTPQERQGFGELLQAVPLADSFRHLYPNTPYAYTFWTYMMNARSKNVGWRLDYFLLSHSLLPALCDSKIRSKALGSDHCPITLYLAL", "assay": "conventional redox EMSA assay", "format": "biochemical", "source_text": "(§1) Biochemistry 50, 82-92 (2011). Nyland et al., Design and Synthesis of Novel Quinone Inhibitors Targeted to the Redox Function of Apurinic/Apyrimidinic Endonuclease 1/Redox Enhancing Factor-1 (Ape1/Ref-1). J Med Chem 53, 1200-1210 (2010). Kelley et al., Cancer Drug Discovery and Development (ed Rebecca G. Bagley) Springer (part of Springer Science+Business Media), 2010. Luo et al., Role of the multifunctional DNA repair and redox signaling protein Ape1/Ref-1 in cancer and endothelial cells: Small molecule inhibition of Ape1's redox function. Antioxid Redox Signal 10, 1853-1867 (2008). Georgiadis et al., Evolution of the redox function in mammalian Apurinic/apyrimidinic Mutation Research 643, 54-63 (2008).\nElectrophoretic mobility shift assay (EMSA). EMSAs are performed as previously described (Georgiadis, (2008) #15789) with the some modifications. Briefly, for super-shift assay, 6 μg STAT3 antibody (Santa Cruz Biotechnology, Inc, Santa Cruz, Calif.) is pre-incubated with 15 mg nuclear extract from PaCa-2 cells (treated with 50 ng/mL IL-6 for 2 hrs in 2% serum), followed by 1 μg/mL poly(dI-dC).poly(dI-dC) (Amersham Biosciences, Piscataway, N.J.) and 0.1 pmol 5′HEX-labeled double-stranded oligonucleotide DNA (Midland Certified Reagent Company, Midland, Tex.) containing the STAT3 direct repeat consensus sequence for 15 min (Preston, (2005)). For the experiment of APE1 interacting with STAT3, purified APE1 protein is reduced with 2 mM DTT (dithiothreitol) for 10 min and diluted to a final concentration of 4 mg with 0.4 mM DTT in PBS. Reduced APE1 is added to 15 mg nuclear extract as above. The final concentration of DTT in redox reactions is 0.04 mM."}, "STAT3, AP-1, and NF-κB": {"test_system": "STAT3, AP-1, and NF-κB", "assay": "DNA binding and transcriptional activity of the target TFs of Ref-1", "format": "biochemical", "settings": "STAT3, AP-1, NF-κB", "method": "Electrophoretic mobility shift assay (EMSA). […] For the experiment of APE1 interacting with STAT3, purified APE1 protein is reduced with 2 mM DTT (dithiothreitol) for 10 min and diluted to a final concentration of 4 mg with 0.4 mM DTT in PBS. Reduced APE1 is added to 15 mg nuclear extract as above. The final concentration of DTT in redox reactions is 0.04 mM."}, "STAT3": {"test_system": "STAT3", "assay": "activation status of signaling pathways in T-ALL", "format": "cell-based", "method": "Western blot analysis. For whole cell lysates, cells are harvested, lysed in RIPA buffer (Santa Cruz Biotechnology; Santa Cruz, Calif.), and protein is quantified and electrophoresed. Nuclear and cytoplasmic extracts are isolated using a conventional method (See, Jackson, (2006)). Immunoblotting is performed using the following antibodies: APE1 (Novus Biologicals; Littleton, Colo.), STAT1, STAT3, STAT5, p-STAT1(Y701), p-STAT3(Y705), p-STAT5 (Y694) (Cell Signaling; Danvers, Mass.), and tubulin (Sigma Aldrich) or GAPDH (Santa Cruz).\nBiochemistry. […] That result is in contrast to what is observed with other compounds such as PI3K/Akt or mTOR."}, "Survivin and Bcl-xL mRNA": {"test_system": "Survivin and Bcl-xL mRNA", "assay": "quantitative PCR of survival genes", "format": "cell-based", "settings": "after 24 h at doses between 25-40 μM", "source_text": "The compounds described herein caused a substantial downregulation of survival genes regulated by STAT3 and NF-κB, such as Survivin, Bcl-xL, and miR-21."}, "T-ALL cells [2]": {"test_system": "T-ALL cells", "assay": "Annexin V/PI assay of apoptosis", "format": "cell-based", "settings": "E3330 […] μM or 40 μM, d1 to d5", "source_text": "The compounds described herein cause apoptosis of leukemia cells, including leukemia T-ALL cells."}, "[3]": {"test_system": "Jurkat, SupT1, MOLT4, and HPB-ALL cell lines", "assay": "viability of relapse T-ALL cell lines", "format": "cell-based", "settings": "Homo sapiens; immortalized lines derived from relapse T-ALL patients", "source_text": "(§2) The compounds described herein are effective against leukemia cells harvested from the bone marrow (BM), thymus (T) or spleen (S). Cells are harvested from the bone marrow (BM), thymus (T) or spleen (S) of mice with terminal Notch (ICN)-induced T-ALL, as determined in a conventional ATP assay (viability at 96 hrs) of the leukemia cells cultured with IL-7. […] Similar inhibition is observed in immortalized Jurkat, SupT1, MOLT4, and HPB-ALL cell lines derived from relapse T-ALL patients, with IC50s from 10-30 μM. Relapse T-ALL lines (Jurkat, SupT1, MOLT4, and HPB-ALL) are reportedly resistant to treatment with glucocorticoids. The compounds described herein are also effective against TAIL7-Dexamethasone resistant cells, which show reduced sensitivity to inhibitors of other leukemia-associated signaling pathways (such as PI3K/Akt, mTOR), and to cytotoxic chemotherapy drugs."}, "leukemia cells": {"test_system": "leukemia cells", "assay": "leukemia cell survival", "format": "cell-based", "settings": "primary cells from ALL patients, relapsed T-ALL, cells from murine Notch-induced leukemia", "method": "as §1, with “The activity of other selective Ref-1 redox inhibitors are analyzed against leukemia cells according to conventional redox EMSA assays. See, Su, D. et al. Interactions of APE1 with a redox inhibitor: Evidence for an alternate conformation of the enzyme. Biochemistry” for “Biochemistry”"}, "[4]": {"test_system": "T-ALL lines from a murine model of T-cell leukemia induced by oncogenic Notch", "assay": "ATP viability assay of leukemia cells from murine Notch-induced T-ALL", "format": "cell-based", "settings": "Mus musculus, T-ALL lines from mice with terminal Notch-induced disease", "source_text": "as §2"}, "T-ALL cells [5]": {"test_system": "T-ALL cells", "assay": "potentiation of conventional drugs, ATP assay", "format": "cell-based", "settings": "fixed dose 20 μM, compared to vehicle", "source_text": "The compounds described herein potentiate the efficacy of conventional drugs for treating leukemia, such as doxorubicin and STATTIC. […]"}, "refractory T-ALL cells": {"test_system": "refractory T-ALL cells", "assay": "xenograft model of leukemia", "format": "in vivo, NSG mice", "settings": "b.i.d., one cycle of 5 days; for circulating blasts (human CD45+ cells in peripheral blood): p<0.05 vs vehicle", "method": "Xenograft models of childhood relapse, refractory ALL. The antileukemia efficacy of Ref-1 redox blockade by the compounds described herein is evaluated in xenograft models of human ALL. In a first phase, the xenograft model with TAIL7 cells is used to test the therapeutic efficacy of the test compound as monotherapy, and in dual-agent regimens combining test compound with agents used as frontline chemotherapy for T-ALL (Vincristine; Doxorubicin; Dexamethasone) and for relapse T-ALL (Methotrexate). […] Such models of childhood ALL are used in immunodeficient mice (NOD/SCID: terminal leukemia in 70-120 d; NSG: terminal leukemia in 28-35 days with TAIL7 cells), including specimens from relapsed and infant ALL.\nXenografts of pediatric relapse T-cell leukemia: TAIL7 cells or cells from patients with relapse T-ALL (high cellularity; ≧90% BM involvement) will be used for the xenografts; patient specimens will be provided by Dr. Batra, according with IRB regulations. Leukemia cells (1×10^6 TAIL7 cells; 2-3×10^6 patient cells/mice) will be transplanted IV into NSG mice (7-9 wk old). 19, 24 Mice will be monitored weekly for presence of human blasts in the PB, by flow cytometry.\nNSG mice (n=5/group) transplanted with refractory T-ALL cells. […] At the end of treatment, frequency of human CD45+ cells was performed in the peripheral blood (PB) and in the bone marrow (BM). Animals are sacrificed for analysis."}}, "note": "pIC50: −log10 of the molar value. Entries after “also recorded” stand apart in the source; their conditions may differ.", "data": [{"compound": "COC1=C(C=C(C)C(=O)N(C)C)C(=O)c2ccccc2C1=O", "note": "[Example 5a]", "values": [{"measurement": "pIC50", "setting": "TAIL7 cells", "result": 5.26}, {"measurement": "MTD", "setting": "[1]", "result": "> 250", "unit": "mg/kg"}, {"measurement": "pIC50", "setting": "Ref-1", "result": 6.00}, {"measurement": "DNA binding and transcriptional activity of the target TFs of Ref-1", "setting": "STAT3, AP-1, and NF-κB", "result": "disrupt"}, {"measurement": "activation status of other signaling pathways involved in T-ALL", "setting": "STAT3", "result": "do not affect"}, {"measurement": "phosphorylation state and nuclear translocation of STAT3", "setting": "STAT3", "result": "do not affect"}]}, {"compound": "CCCCCCCCC/C(=C\\C1=C(C)C(=O)C(OC)=C(OC)C1=O)C(=O)O", "note": "[Example E3330]", "values": [{"measurement": "pIC50", "setting": "TAIL7 cells", "result": 4.53}, {"measurement": "MTD", "setting": "[1]", "result": "> 250", "unit": "mg/kg"}, {"measurement": "DNA binding and transcriptional activity of the target TFs of Ref-1", "setting": "STAT3, AP-1, and NF-κB", "result": "disrupt"}, {"measurement": "reduction in Survivin and Bcl-xL mRNA", "setting": "Survivin and Bcl-xL mRNA", "result": "2-10 fold"}, {"measurement": "leukemia cell apoptosis", "setting": "T-ALL cells [2]", "result": "significant leukemia cell apoptosis; also recorded: induces leukemia cell apoptosis"}, {"measurement": "pIC50", "setting": "[3]", "result": "4.52 to 5.00"}, {"measurement": "leukemia cell survival", "setting": "leukemia cells", "result": "markedly inhibits"}, {"measurement": "pIC50", "setting": "[4]", "result": "4.52 to 4.70"}, {"measurement": "potentiation of the activity of STATTIC", "setting": "T-ALL cells [5]", "result": "potentiates"}, {"measurement": "potentiation of the activity of doxorubicin", "setting": "T-ALL cells [5]", "result": "potentiates"}, {"measurement": "activation status of other signaling pathways involved in T-ALL", "setting": "STAT3", "result": "do not affect"}, {"measurement": "phosphorylation state and nuclear translocation of STAT3", "setting": "STAT3", "result": "do not affect"}, {"measurement": "frequency of CD45+ in the BM", "setting": "refractory T-ALL cells; 50 mg/kg/d", "result": "marked decrease"}, {"measurement": "circulating blasts (human CD45+ cells in peripheral blood)", "setting": "refractory T-ALL cells; 50 mg/kg/d", "result": "significant reduction"}]}, {"compound": "CCCC(=CC1=C(OC)C(=O)c2ccccc2C1=O)C(=O)N(CC)CC", "note": "[Example 5c]", "values": [{"measurement": "pIC50", "setting": "TAIL7 cells", "result": 5.38}, {"measurement": "MTD", "setting": "[1]", "result": "> 250", "unit": "mg/kg"}, {"measurement": "pIC50", "setting": "Ref-1", "result": 6.00}, {"measurement": "DNA binding and transcriptional activity of the target TFs of Ref-1", "setting": "STAT3, AP-1, and NF-κB", "result": "disrupt"}, {"measurement": "activation status of other signaling pathways involved in T-ALL", "setting": "STAT3", "result": "do not affect"}, {"measurement": "phosphorylation state and nuclear translocation of STAT3", "setting": "STAT3", "result": "do not affect"}, {"measurement": "frequency of CD45+ in the BM", "setting": "refractory T-ALL cells; 25 mg/kg/d", "result": "marked decrease"}, {"measurement": "circulating blasts (human CD45+ cells in peripheral blood)", "setting": "refractory T-ALL cells; 25 mg/kg/d", "result": "significant reduction"}]}, {"compound": "CCCC(=CC1=C(OC)C(=O)c2ccccc2C1=O)C(=O)N(C)C", "note": "[Example 5e]", "values": [{"measurement": "pIC50", "setting": "TAIL7 cells", "result": 5.26}, {"measurement": "MTD", "setting": "[1]", "result": "> 250", "unit": "mg/kg"}, {"measurement": "pIC50", "setting": "Ref-1", "result": 5.70}, {"measurement": "DNA binding and transcriptional activity of the target TFs of Ref-1", "setting": "STAT3, AP-1, and NF-κB", "result": "disrupt"}, {"measurement": "activation status of other signaling pathways involved in T-ALL", "setting": "STAT3", "result": "do not affect"}, {"measurement": "phosphorylation state and nuclear translocation of STAT3", "setting": "STAT3", "result": "do not affect"}]}]}
